The conditions of data set [1]: rat, in vivo, iv, 1 mg/kg.
For data set [2] the following is noted: cynomolgus monkey, in vivo, iv, 1 mg/kg.
The conditions of data set [3]: human, in vivo, iv.
Description: Hepatic clearance in human administered through iv dosing
Data set [4] in a line: in vivo. The following applies: Wistar Hannover, rat, blood and plasma, iv.
Description: Ratio of drug level in Wistar Hannover rat blood to plasma administered through iv dosing by LC-MS/MS analysis
A short description of data set [5]: in vivo. Conditions: cynomolgus monkey, blood and plasma, iv.
Description: Ratio of drug level in cynomolgus monkey blood to plasma administered through iv dosing by LC-MS/MS analysis
Data set [6] in a line: physchem.
Data set [7] can be described thus: in vitro. Conditions: dog, MDCK, pH 7.4.
Description: Apparent permeability in dog MDCKII-LE cells at pH 7.4
The nature of data set [8]: physchem. The following applies: buffer, pH 7.4.
The nature of data set [9]: in vitro. Conditions: human, cryopreserved hepatocytes.
A short description of data set [10]: in vitro. Conditions: rat, plasma.
Description: Fraction unbound in rat plasma
Data set [11] can be described thus: in vitro. The following applies: cynomolgus monkey, plasma.
Description: Fraction unbound in cynomolgus monkey plasma
Data set [12] in a line: clinical. Conditions: human, blood and plasma, iv.
Description: Ratio of drug level in human blood to plasma administered through iv dosing by LC-MS/MS analysis
Data set [13] can be described thus: in vitro. Conditions: human, plasma.
Description: Fraction unbound in human plasma
Data set [14] in a line: physchem. The source holds these as a separate data set.
Data set [15] is described as follows: Ratio of drug level in cynomolgus monkey blood to plasma administered through oral dosing by LC-MS/MS analysis. Type of data set: ADME, cell-free, Macaca fascicularis. Conditions: blood and plasma.
Data set [16] is described as follows: Ratio of drug level in human blood to plasma administered through oral dosing by LC-MS/MS analysis. The following applies: blood and plasma. The class given is ADME, cell-free.
Data set [17] is described as follows: Hepatic clearance in cynomolgus monkey administered through oral dosing. Conditions: in vivo. The class given is ADME, Macaca fascicularis.
A short description of data set [18]: Hepatic clearance in human administered through oral dosing. Type of data set: ADME.

SMILES strings stand for the structures.

Consider 13 molecules from ChEMBL document CHEMBL4699523, “Predicting the Human Hepatic Clearance of Acidic and Zwitterionic Drugs” (J Med Chem, 2020).

In general, pKa refers to the pH at which an ionisable group is half protonated. In general, Papp refers to the rate of passage across a membrane or cell layer, normalised by area and donor concentration. In general, logD refers to the decadic logarithm of the distribution of all forms, ionised or not, between an organic phase and buffer at a given pH. In general, CLint scaled refers to the capacity of the preparation to metabolise the compound, expressed as a volume cleared per time.

In the case of `CCCc1nc2c(C)cc(-c3nc4ccccc4n3C)cc2n1Cc1ccc(-c2ccccc2C(=O)O)cc1`, the CLH in [1] amounted to 4.3 mL/min/kg; in data set [2], 9.2 mL/min/kg; in [3], 10.2 mL/min/kg. Further, the blood plasma ratio in data set [4] came to 0.65; in data set [5], 0.61; in data set [12], 0.61. Also, the values for the pKa at 0.3 h in data set [6] and in [14] were 4.2 and 3.2, respectively. This molecule returned a Papp in data set [7] of 12 ×10⁻⁶ cm/s. In data set [8], the logD stood at 2.4. Also, the CLint scaled at 2 h, 1 µM in data set [9] is 39 mL/min/kg. Besides, the fraction unbound in data set [10] was 0.006; in [11], 0.0125; in data set [13], 0.006.
Consider `O=C(O)[C@@H]1CCC[C@H]1C(=O)c1ccc(-c2ccc(Nc3nc4ccc(F)cc4s3)c(F)c2)cc1`, for which the blood plasma ratio in [15] is 0.617; in data set [16], 0.653. In addition, the results for the CLH in data set [17] and in data set [18] were 2 mL/min/kg and 0.59 mL/min/kg, respectively. Further, the values for the pKa at 0.3 h in data set [6] and in data set [14] were 4.7 and 2.4, respectively. The Papp in data set [7] turned out to be 2.3 ×10⁻⁶ cm/s. The same molecule yielded a log distribution coefficient (logD) in [8] greater than 3.5. The molecule also showed a CLint scaled at 2 h, 1 µM in data set [9] of 201 mL/min/kg. Further, the fraction unbound is 0.0014 in data set [11] and 0.00086 in [13].
Take `Cc1cc(O[C@H](CCC(F)(F)F)c2ccc(C(=O)NCCC(=O)O)cc2)cc(C)c1-c1ccc(C(C)(C)C)cc1`: the blood plasma ratio amounted to 0.823 in data set [15] and 0.605 in data set [16]. In addition, the CLH was 0.29 mL/min/kg in data set [17] and 0.078 mL/min/kg in data set [18]. In data set [6], this molecule registered a pKa at 0.3 h of 4.4. This molecule showed a logD in [8] greater than 3.5. For the same molecule, in [9], the CLint scaled at 2 h, 1 µM was 1680 mL/min/kg. Moreover, the values for the fraction unbound in [11] and in data set [13] were 5.6e-05 and 3.6e-05, respectively.
As to `Cc1ccc(S(=O)(=O)NCCc2ccc(Oc3ccc(F)c(F)c3)cc2)cc1C(=O)O`, the blood plasma ratio worked out at 0.562 in [15] and 0.55 in [16]. The CLH came to 6.1 mL/min/kg in data set [17] and 0.72 mL/min/kg in [18]. In data set [6], this molecule registered a pKa at 0.3 h of 3.4. Besides, in [7], the Papp amounted to 7.3 ×10⁻⁶ cm/s. The molecule further registered a logD in data set [8] of 1.6. The molecule also had a CLint scaled at 2 h, 1 µM in data set [9] of 19 mL/min/kg. Further, the fraction unbound was 0.00107 in data set [11] and 0.00229 in [13].
With `COc1ccccc1Oc1c(NS(=O)(=O)c2ccc(C(C)(C)C)cc2)nc(-c2ncccn2)nc1OCCO` [BOSENTAN], the results for the CLH in data set [1], in data set [2] and in [3] were 15.9 mL/min/kg, 33.1 mL/min/kg and 2.2 mL/min/kg, respectively. Moreover, the blood plasma ratio in [4] came out at 0.69; in data set [5], 1.19; in data set [12], 0.668. In data set [6], this molecule had a pKa at 0.3 h of 4.9. The molecule further had a Papp in data set [7] of 7.4 ×10⁻⁶ cm/s. The logD in data set [8] is 1.2. The molecule also came in with a CLint scaled at 2 h, 1 µM in [9] of 16 mL/min/kg. Besides, the fraction unbound amounted to 0.0121 in data set [10], 0.0422 in data set [11] and 0.0285 in data set [13].
In the case of `COc1ccccc1[C@H](Cn1c(=O)n(C(C)(C)C(=O)O)c(=O)c2c(C)c(-c3ncco3)sc21)OC1CCOCC1` [FIRSOCOSTAT], the blood plasma ratio in data set [15] came to 0.623; in [16] it was 0.655. Moreover, the results for the CLH in data set [17] and in data set [18] were 11.3 mL/min/kg and 10 mL/min/kg, respectively. Also, in data set [7], the Papp was 5.5 ×10⁻⁶ cm/s. The same molecule displayed a logD in data set [8] of 1.1. In data set [9], this molecule registered a CLint scaled at 2 h, 1 µM of 23 mL/min/kg. Further, the fraction unbound stood at 0.0284 in [11] and 0.0172 in [13].
`Cc1ccc(NC(=O)C2(c3ccc4c(c3)OC(F)(F)O4)CC2)nc1-c1cccc(C(=O)O)c1` [LUMACAFTOR]: the blood plasma ratio in [15] and in data set [16] was 0.575 each time. In addition, the CLH in data set [17] worked out at 0.72 mL/min/kg; in data set [18] it was 0.26 mL/min/kg. This molecule also gave a pKa at 0.3 h in data set [6] of 4.2. Moreover, in data set [7], the Papp worked out at 25 ×10⁻⁶ cm/s. In data set [8], the logD stood at 2.6. Besides, in data set [9], the CLint scaled at 2 h, 1 µM worked out at 27 mL/min/kg. In addition, the fraction unbound in data set [11] came out at 0.0045; in data set [13] it was 0.0032.
In the case of `CCC[C@H](c1ccc(C(=O)NCCC(=O)O)cc1)[C@H](c1ccc(Cl)cc1)c1c[nH]c2c(F)cc(C)cc12` [MK-3577], the results for the blood plasma ratio in [15] and in data set [16] were 0.95 and 0.55, respectively. Moreover, the CLH in [17] is 9.3 mL/min/kg; in data set [18], 4.9 mL/min/kg. Besides, the pKa at 0.3 h in [6] was found to be 4.1. For the same molecule, the logD in data set [8] was greater than 3.5. In [9], this molecule displayed a CLint scaled at 2 h, 1 µM of 571 mL/min/kg. Also, the fraction unbound in [11] amounted to 0.00023; in data set [13], 0.00025.
As for `Cc1nn(-c2cnc(OCC(C)C)c(Cl)c2)c2ccc(C(=O)NS(C)(=O)=O)cc12` [PF-05241328], the figures for the CLH in [1], in data set [2] and in [3] were 3.1 mL/min/kg, 30.1 mL/min/kg and 5.7 mL/min/kg, respectively. Further, the blood plasma ratio in data set [4] amounted to 0.55; in data set [5] it was 0.56; in data set [12] it was 0.56. In [6], this molecule yielded a pKa at 0.3 h of 3.6. In data set [7], this molecule registered a Papp of 3.9 ×10⁻⁶ cm/s. Besides, in data set [8], the logD was determined as 2. This molecule returned a CLint scaled at 2 h, 1 µM in [9] of 37 mL/min/kg. Further, the fraction unbound in [10] worked out at 0.001; in [11], 0.002; in data set [13], 0.002.
Take `O=C(O)C[C@H](O)C[C@H](O)/C=C/c1c(C2CC2)nc2ccccc2c1-c1ccc(F)cc1` [PITAVASTATIN]: the CLH in data set [1] is 7.1 mL/min/kg; in [2], 17.8 mL/min/kg; in [3] it was 5.6 mL/min/kg. Further, the blood plasma ratio in [4], in data set [5] and in data set [12] was 0.65 throughout. Moreover, the figures for the pKa at 0.3 h in data set [6] and in data set [14] were 4.7 and 5.1, respectively. The molecule also displayed a Papp in data set [7] of 8.5 ×10⁻⁶ cm/s. Further, the logD in data set [8] worked out at 1.2. The CLint scaled at 2 h, 1 µM in data set [9] came out at 31 mL/min/kg. Besides, the fraction unbound in [10] worked out at 0.008; in [11], 0.0263; in [13] it was 0.008.
Turning to `CC[C@H](C)C(=O)O[C@H]1C[C@H](O)C=C2C=C[C@H](C)[C@H](CC[C@@H](O)C[C@@H](O)CC(=O)O)[C@H]21` [PRAVASTATIN], the values for the CLH in data set [1], in [2] and in data set [3] were 19.3 mL/min/kg, 34.6 mL/min/kg and 7.3 mL/min/kg, respectively. For the same molecule, the values for the blood plasma ratio in data set [4], in [5] and in [12] were 0.595, 0.651 and 0.55, respectively. In addition, in data set [6], the pKa at 0.3 h was determined as 4.3. The molecule also displayed a Papp in data set [7] of 0.46 ×10⁻⁶ cm/s. The molecule further came in with a logD in data set [8] of -0.4. Moreover, in [9], the CLint scaled at 2 h, 1 µM was 0.77 mL/min/kg. The results for the fraction unbound in [10], in [11] and in data set [13] were 0.537, 0.649 and 0.634, respectively.
For the molecule `CC(C)c1nc(N(C)S(C)(=O)=O)nc(-c2ccc(F)cc2)c1/C=C/[C@@H](O)C[C@@H](O)CC(=O)O` [ROSUVASTATIN], the CLH in data set [1] turned out to be 28.4 mL/min/kg; in data set [2] it was 27.9 mL/min/kg; in data set [3], 6.8 mL/min/kg. The blood plasma ratio in [4] is 0.588; in data set [5] it was 0.735; in [12], 0.569. In data set [6], this molecule gave a pKa at 0.3 h of 4.3. This molecule yielded a Papp in data set [7] of 0.89 ×10⁻⁶ cm/s. Further, the logD in data set [8] came to 0.1. The CLint scaled at 2 h, 1 µM in data set [9] is 0.86 mL/min/kg. The fraction unbound in data set [10] is 0.0421; in [11], 0.155; in data set [13] it was 0.158.
With `Cn1cc(C(=O)O)c2ccc(N3CCC(OCc4c(-c5c(Cl)cccc5Cl)noc4C4CC4)CC3)cc21` [TERN-101], the blood plasma ratio in data set [15] worked out at 1.1; in [16] it was 0.612. The values for the CLH in [17] and in [18] were 6 mL/min/kg and 8.8 mL/min/kg, respectively. The same molecule displayed a Papp in data set [7] of 17 ×10⁻⁶ cm/s. In data set [8], the logD amounted to 2.7. The molecule further gave a CLint scaled at 2 h, 1 µM in data set [9] of 111 mL/min/kg. The fraction unbound in [11] came to 0.0049; in [13] it was 0.0122.
